Experimental data from US20260234215A1, “Anti-Inflammatory Bio-Active Collagen Hybridizing Peptides and Methods of Using Thereof” (3HELIX, INC., priority 2023, published 2026).

Tested on: Jurkat T-Cells (E6-1 from ATCC)
Assay: In vitro T-cell activation/inhibition assay (anti-CD3/anti-CD28 stimulation, IL-2 ELISA)
Type: cell-based, human
Conditions: 37° C., CHP 100 μM with gelatin 0.5 mg/mL
Description: A particular in vitro activation assay was carried out to evaluate the effects that the anti-inflammatory bioactive LAIR-1 CHPs have on T-cells. Details regarding the experimental conditions for the T-cell assay with Jukat T-cells are depicted in FIG. 13. As shown, Jukat T-cells were incubated with activating antibodies against CD3 and CD28 receptors to initiate activation. […] T-cell activation was then assessed by ELISA for IL-2 secretion in media supernatant. Activated T-cells express high levels of IL-2.
Secreted IL-2 was measured for the following conditions: negative control which were unactivated T cells; positive control T cells which received anti-CD3 and anti-CD28 antibodies; positive control t cells which received stimulating antibodies in the presence of soluble gelatin; and the CHP test condition which received stimulating antibodies in the presence of LAIR1-CHPs.
For the T-cell activation/inhibition experimental protocol, three monomeric CHPs (LAIR-1 HTm CHP1 [SEQ ID NO: 87, wherein x=4 and y=4], LAIR-1 HTm CHP2 [SEQ ID NO: 2, wherein x=4 and y=4], and LAIR-1 HTm CHP3 [SEQ ID NO: 106]) were tested for T-cell activation/inhibition. First, CHPs were incubated with the gelatin under test conditions for at least 24 hours at 37° C. The final gelatin concentration in the media for incubation was 0.5 mg/mL. […]

## Biotin-GGG-(GPO)9 [LAIR-1 HTm CHP3]
72 hours post-stimulation
  effect on IL 2 production compared to the gelatin positive control: did not have an effect
96 hours post-stimulation
  effect on IL 2 production compared to the gelatin positive control: did not have an effect
